Structures can show the parent of a compound that is named as a salt.
Key:
[1] = target: Mnk1 (Homo sapiens (Human), UniProt Q9BUB5); experiment: biochemical
[2] = female, Balb/c, mouse, in vivo, po, 10 mg/kg
[3] = in vivo; conditions: female, Balb/c, mouse, po, 10 mg/kg; for AUC(0-t): AUClast; for half-life: T½
[4] = Pharmacokinetics in Balb/c mice, single intravenous bolus administration; assay type: in vivo; conditions: intravenous bolus 1 mg/kg, formulation 10DMA/15EtOH/35PEG300/40D5W, gender F; for AUC(0-inf) / half-life / Vd: female, mouse, plasma; for AUC(0-inf): read-out: AUCINF_obs; for half-life: read-out: T½ (converted); for Vd: read-out: Vss
[5] = target: Mnk2 (Homo sapiens (Human), UniProt Q9HBH9); experiment: biochemical
Sequence of Mnk2 (Q9HBH9 whole entry): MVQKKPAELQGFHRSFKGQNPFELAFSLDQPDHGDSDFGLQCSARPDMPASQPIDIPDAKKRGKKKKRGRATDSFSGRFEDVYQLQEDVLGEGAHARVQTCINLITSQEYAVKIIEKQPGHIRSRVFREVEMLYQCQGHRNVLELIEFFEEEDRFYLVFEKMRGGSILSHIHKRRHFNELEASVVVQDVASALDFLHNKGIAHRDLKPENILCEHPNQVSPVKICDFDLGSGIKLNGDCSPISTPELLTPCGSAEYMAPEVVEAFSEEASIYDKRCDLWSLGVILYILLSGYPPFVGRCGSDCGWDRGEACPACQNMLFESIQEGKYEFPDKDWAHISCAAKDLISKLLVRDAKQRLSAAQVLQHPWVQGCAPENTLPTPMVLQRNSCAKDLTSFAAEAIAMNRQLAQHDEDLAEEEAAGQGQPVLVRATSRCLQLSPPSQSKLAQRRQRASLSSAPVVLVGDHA

Sequence of Mnk1 (Q9BUB5 whole entry): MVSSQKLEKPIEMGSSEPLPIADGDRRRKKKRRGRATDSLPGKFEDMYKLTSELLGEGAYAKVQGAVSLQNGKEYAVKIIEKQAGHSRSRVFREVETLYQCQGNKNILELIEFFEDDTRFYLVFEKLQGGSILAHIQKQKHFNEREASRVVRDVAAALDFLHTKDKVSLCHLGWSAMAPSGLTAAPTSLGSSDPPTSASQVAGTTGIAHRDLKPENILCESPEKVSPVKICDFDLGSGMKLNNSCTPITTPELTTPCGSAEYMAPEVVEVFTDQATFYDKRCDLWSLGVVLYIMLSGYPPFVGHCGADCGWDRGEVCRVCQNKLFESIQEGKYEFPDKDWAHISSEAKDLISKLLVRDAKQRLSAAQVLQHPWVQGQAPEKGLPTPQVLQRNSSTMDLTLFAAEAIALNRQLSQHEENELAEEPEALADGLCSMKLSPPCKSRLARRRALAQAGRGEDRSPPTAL

IC50 [1] [nM]	Cmax [3] [ng/mL]	Tmax [3] [h]	half-life [3] [h]	Structure (SMILES)	further results
< 10	36	1	2.21	Cl.O=C1NC2(CCCNC2)n2c1c(Cl)cc(Nc1cc(NC(=O)C3CC3)ncn1)c2=O (centres unmarked) [Cpd. No. 60, N-(6-((8-chloro-1,5-dioxo-1,5-dihydro-2H-spiro[imidazo[1,5-a]pyridine-3,3′-piperidin]-6-yl)amino)pyrimidin-4-yl)cyclopropanecarboxamide hydrochloride]	Tlast [2]: 4 h; AUC(0-t) [3]: 78.2 ng·h/mL
< 10	–	–	–	O=C1NC2(CNC2)n2c1c(Cl)cc(Nc1cc(NC(=O)C3CC3)ncn1)c2=O [Cpd. No. 86, N-[6-[(8-chloro-1,5-dioxo-spiro[2H-imidazo[1,5-a]pyridine-3,3′-azetidine]-6-yl)amino]pyrimidin-4-yl]cyclopropanecarboxamide hydrochloride]	–
–	810	0.5	2.97	CC1(C)NC(=O)c2c(Cl)cc(Nc3cc(N)ncn3)c(=O)n21 [Cpd. No. 88, 6-[(6-aminopyrimidin-4-yl)amino]-8-chloro-3,3-dimethyl-2H-imidazo[1,5-a]pyridine-1,5-dione]	AUC(0-inf) [4]: 273 ng·h/mL; half-life [4]: 1.3 h; Vd [4]: 3.03 L/kg; Cl_obs [4]: 61 mL/min/kg; Tlast [2]: 8 h; AUC(0-t) [3]: 2040 ng·h/mL
< 10	–	–	–	Cc1cc(Nc2cc(N)ncn2)c(=O)n2c1C(=O)NC2(C)c1cccc(Cl)c1 (centres unmarked) [Cpd. No. 92, 6-[(6-aminopyrimidin-4-yl)amino]-3-(3-chlorophenyl)-3,8-dimethyl-2H-imidazo[1,5-a]pyridine-1,5-dione]	–
< 10	1800	0.5	2	Nc1cc(Nc2cc(Cl)c3n(c2=O)C2(CCCC2)NC3=O)ncn1 [Cpd. No. 94, 6-[(6-aminopyrimidin-4-yl)amino]-8-chloro-spiro[2H-imidazo[1,5-a]pyridine-3,1′-cyclopentane]-1,5-dione]	AUC(0-inf) [4]: 812 ng·h/mL; half-life [4]: 5.81 h; Vd [4]: 12.2 L/kg; Cl_obs [4]: 20.5 mL/min/kg; Tlast [2]: 8 h; AUC(0-t) [3]: 6070 ng·h/mL
–	1200	0.3	3.1	Cc1cc(Nc2cc(N)ncn2)c(=O)n2c1C(=O)NC21CCCC1.Cl [Cpd. No. 98, 6-[(6-aminopyrimidin-4-yl)amino]-8-methyl-spiro[2H-imidazo[1,5-a]pyridine-3,1′-cyclopentane]-1,5-dione hydrochloride]	AUC(0-inf) [4]: 358 ng·h/mL; half-life [4]: 1.79 h; Vd [4]: 3.56 L/kg; Cl_obs [4]: 46.6 mL/min/kg; Tlast [2]: 8 h; AUC(0-t) [3]: 4180 ng·h/mL
< 10	400	0.3	1.6	Cl.Nc1cc(Nc2cc(Cl)c3n(c2=O)C2(CCC(F)(F)CC2)NC3=O)ncn1 [Cpd. No. 99, 6-[(6-aminopyrimidin-4-yl)amino]-8-chloro-4′,4′-difluoro-spiro[2H-imidazo[1,5-a]pyridine-3,1′-cyclohexane]-1,5-dione hydrochloride]	Tlast [2]: 8 h; AUC(0-t) [3]: 1380 ng·h/mL; IC50 [5]: < 10 nM
< 10	–	–	–	Cc1cc(Nc2cc(N)ncn2)c(=O)n2c1C(=O)NC2(C)c1cccc(F)c1 (centres unmarked) [Cpd. No. 101, 6-((6-aminopyrimidin-4-yl)amino)-3-(3-fluorophenyl)-3,8-dimethyl-2,3-dihydroimidazo[1,5-a]pyridine-1,5-dione]	–
–	1800	0.3	1.4	Cc1cc(Nc2cc(N)ncn2)c(=O)n2c1C(=O)NC2(C)C.Cl [Cpd. No. 102, 6-((6-aminopyrimidin-4-yl)amino)-3,3,8-trimethyl-2,3-dihydroimidazo[1,5-a]pyridine-1,5-dione hydrochloride]	IC50 [5]: < 10 nM
< 10	–	–	–	Cc1cc(Nc2cc(N)ncn2)c(=O)n2c1C(=O)NC21CCC(F)(F)CC1 [Cpd. No. 103, 6-[(6-aminopyrimidin-4-yl)amino]-4′,4′-difluoro-8-methyl-spiro[2H-imidazo[1,5-a]pyridine-3,1′-cyclohexane]-1,5-dione hydrochloride]	–
< 10	–	–	–	CC(C)(C)C1(C)NC(=O)c2c(Cl)cc(Nc3cc(N)ncn3)c(=O)n21 (centres unmarked) [Cpd. No. 105, 6-[(6-aminopyrimidin-4-yl)amino]-3-tert-butyl-8-chloro-3-methyl-2H-imidazo[1,5-a]pyridine-1,5-dione hydrochloride]	–
–	950	1	5.3	Cc1cc(Nc2cc(N)ncn2)c(=O)n2c1C(=O)NC21CCCCC1 [Cpd. No. 107, 6′-((6-aminopyrimidin-4-yl)amino)-8′-methyl-2′H-spiro[cyclohexane-1,3′-imidazo[1,5-a]pyridine]-1′,5′-dione]	AUC(0-inf) [4]: 502 ng·h/mL; half-life [4]: 2.91 h; Vd [4]: 3.21 L/kg; Cl_obs [4]: 33.2 mL/min/kg; Tlast [2]: 8 h; AUC(0-t) [3]: 2760 ng·h/mL
< 10	44	0.3	0.3	Cl.Cl.Nc1cc(Nc2cc(Cl)c3n(c2=O)C2(CCNCC2)NC3=O)ncn1 [Cpd. No. 108, 6-((6-aminopyrimidin-4-yl)amino)-8-chloro-2H-spiro[imidazo[1,5-a]pyridine-3,4′-piperidine]-1,5-dione dihydrochloride]	–
< 10	–	–	–	Nc1cc(Nc2cc(Cl)c3n(c2=O)C2(CCc4ccc(Cl)cc42)NC3=O)ncn1 (centres unmarked) [Cpd. No. 111, 6-[(6-aminopyrimidin-4-yl)amino]-6′,8-dichloro-spiro[2H-imidazo[1,5-a]pyridine-3,1′-indane]-1,5-dione hydrochloride]	–
–	–	–	–	CC1(C2CCCC2)N(C#N)C(=O)c2ccc(Nc3cc(N)ncn3)c(=O)n21 (centres unmarked) [Cpd. No. 118, 6-[(6-aminopyrimidin-4-yl)amino]-3-cyclopentyl-3-methyl-1,5-dioxo-imidazo[1,5-a]pyridine-2-carbonitrile]	IC50 [5]: < 10 nM
< 10	–	–	–	Cc1cc(Nc2cc(N)ncn2)c(=O)n2c1C(=O)NC21CCCN(C)C1 (centres unmarked) [Cpd. No. 170, 6-[(6-aminopyrimidin-4-yl)amino]-1′,8-dimethyl-spiro[2H-imidazo[1,5-a]pyridine-3,3′-piperidine]-1,5-dione]	–

Structure (SMILES)	IC50 [1] [nM]	Cmax [3] [ng/mL]	Tmax [3] [h]	half-life [3] [h]	further results
O=C1NC2(CCNC2)n2c1ccc(Nc1ccncn1)c2=O (centres unmarked) [Cpd. No. 26, 6-(pyrimidin-4-ylamino)-1H-spiro[imidazo[1,5-a]pyridine-3,3′-pyrrolidine]-1,5(2H)-dione]	10 to 100	–	–	–	–
CC1(c2cc(F)cc(Cl)c2)NC(=O)c2ccc(Nc3ccncn3)c(=O)n21 (centres unmarked) [Cpd. No. 28, 3-(3-chloro-5-fluorophenyl)-3-methyl-6-(pyrimidin-4-ylamino)-2,3-dihydroimidazo[1,5-a]pyridine-1,5-dione]	10 to 100	–	–	–	–
CC1(c2cc(Cl)cc(Cl)c2)NC(=O)c2ccc(Nc3ccncn3)c(=O)n21 (centres unmarked) [Cpd. No. 33, 3-(3,5-dichlorophenyl)-3-methyl-6-(pyrimidin-4-ylamino)-2,3-dihydroimidazo[1,5-a]pyridine-1,5-dione]	10 to 100	–	–	–	–
O=c1c(Nc2ccncn2)ccc2n1C1(CCCCC1)NC2=S [Cpd. No. 131, 6′-(pyrimidin-4-ylamino)-1′-thioxo-1′,2′-dihydro-5′H-spiro[cyclohexane-1,3′-imidazo[1,5-a]pyridin]-5′-one]	10 to 100	–	–	–	–
CC1(C)NC(=O)c2c(Cl)cc(Nc3ncnc4cnccc34)c(=O)n21 [Cpd. No. 165, 8-chloro-3,3-dimethyl-6-(pyrido[3,4-d]pyrimidin-4-ylamino)-2,3-dihydroimidazo[1,5-a]pyridine-1,5-dione]	10 to 100	–	–	–	–

Reference: patent US9669031B2, “MNK inhibitors and methods related thereto” (eFFECTOR Therapeutics, Inc., priority 2014, dated 2017)
